Measurements reported in patent US12318477B2, “Injectable and inhalable formulations” (CYBIN UK LTD, priority 2021, dated 2025).

Key:
[1] = In vivo pharmacokinetic (PK) profile following intramuscular (IM) dosing in rats; conditions: rat; for plasma levels at 30 mins compared with undeuterated DMT: […] (as fumarate) IM dose; for Cmax compared with DMT (SPL026): following IM dosing, p=0.005
[2] = according to the Human Metabolome Database (HMDB); cited from earlier work
[3] = pH-solubility in 0.5M Britton Robinson buffer at 25° C.; assay type: physicochemical; conditions: aqueous buffer, thermodynamic from solid, pH between about 4 and about 6
Method: Prior to adding N,N-dimethyltryptamine, a quantity of NaOH was added to the BR buffer as required to ensure the required pH. The total volume of BR buffer plus required amount of NaOH was 5 ml for each pH tested (pH 4, 5, 6, 7, 8, 9 & 10).

| SMILES | plasma levels at 30 mins compared with undeuterated DMT [1] | Cmax compared with DMT (SPL026) [1] | increase in AUC0-inf at 10 mg/kg dose compared to […] dose level ([1]; IM) | stability in solution [2] | solubility [3] |
| --- | --- | --- | --- | --- | --- |
| O=C(O)/C=C/C(=O)O.[2H]C([2H])([2H])N(C([2H])([2H])[2H])C([2H])([2H])Cc1c[nH]c2ccccc12 [SPL028viii, α,α,bis-deuterio-N,N-hexadeuterio-dimethyltryptamine fumarate salt] | significantly higher plasma levels | significantly higher | – | – | – |
| O=C(O)/C=C/C(=O)O.[2H]C([2H])(Cc1c[nH]c2ccccc12)N(C)C [SPL028i, α,α,-bis-deuterium-N,N-dimethyltryptamine fumarate salt] | significantly higher plasma levels | significantly higher | 237% | – | – |
| CN(C)CCc1c[nH]c2ccccc12 [N,N-Dimethyltryptamine, N,N-dimethyltryptamine] | – | – | – | degrades relatively quickly in solution | ≥ 90 mg/mL |
